Where only a bound is given, the exact number is not on record here.

The target in the assay is CDK7/Cyclin H/MNAT1 (Homo sapiens, UniProt P50613).
Chain of CDK7/Cyclin H/MNAT1 (P51946 whole entry): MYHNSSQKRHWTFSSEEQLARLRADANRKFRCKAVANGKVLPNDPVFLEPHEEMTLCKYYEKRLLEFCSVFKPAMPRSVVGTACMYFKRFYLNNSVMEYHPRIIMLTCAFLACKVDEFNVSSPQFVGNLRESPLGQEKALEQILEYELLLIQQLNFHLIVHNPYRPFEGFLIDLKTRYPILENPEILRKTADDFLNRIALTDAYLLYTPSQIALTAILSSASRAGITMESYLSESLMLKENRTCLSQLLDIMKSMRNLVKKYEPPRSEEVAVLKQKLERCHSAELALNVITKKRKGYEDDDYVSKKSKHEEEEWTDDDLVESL
Chain of CDK7/Cyclin H/MNAT1 (P50613 whole entry): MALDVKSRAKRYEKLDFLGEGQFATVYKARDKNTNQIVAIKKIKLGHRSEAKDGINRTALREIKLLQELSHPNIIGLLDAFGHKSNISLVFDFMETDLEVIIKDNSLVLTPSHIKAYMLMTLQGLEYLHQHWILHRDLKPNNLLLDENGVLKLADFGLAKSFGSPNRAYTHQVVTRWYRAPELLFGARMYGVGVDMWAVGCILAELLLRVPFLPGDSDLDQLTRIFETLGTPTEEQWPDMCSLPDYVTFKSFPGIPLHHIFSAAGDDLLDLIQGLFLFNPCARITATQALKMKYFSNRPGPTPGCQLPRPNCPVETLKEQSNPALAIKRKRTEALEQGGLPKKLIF
Chain of CDK7/Cyclin H/MNAT1 (P51948 whole entry, further chain): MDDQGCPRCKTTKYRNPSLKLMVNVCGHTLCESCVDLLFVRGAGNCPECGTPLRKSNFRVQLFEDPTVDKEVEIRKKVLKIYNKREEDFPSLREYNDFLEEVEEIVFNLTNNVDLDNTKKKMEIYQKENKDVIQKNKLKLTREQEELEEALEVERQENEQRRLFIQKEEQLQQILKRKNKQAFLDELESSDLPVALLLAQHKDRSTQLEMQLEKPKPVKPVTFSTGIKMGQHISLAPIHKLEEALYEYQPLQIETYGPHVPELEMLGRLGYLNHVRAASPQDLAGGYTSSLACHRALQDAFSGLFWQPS

Description: Inhibition of recombinant human full-length His-tagged CDK7/Cyclin H/MNAT1 expressed in baculovirus infection system using Cdk7/9tide as substrate measured after 1 hr by Alexa Fluor 647 ADP Tracer-based Adapta assay

Broadly, the IC50 is the concentration needed to halve the response being measured. As to `C=CC(=O)Nc1ccc(C(=O)N2CCC[C@@H](Nc3ncc(SCc4ncc(C(C)(C)C)o4)s3)C2)cc1C(F)(F)F`, the IC50 was 3.49 µM.

The molecule `C=CC(=O)Nc1ccc(C(=O)N2CC(Nc3ncc(SCc4ncc(C(C)(C)C)o4)s3)CC(F)(F)C2)cc1` (stereo not given) displayed an IC50 of 9.6 µM.

In the case of `C=CC(=O)Nc1ccc(C(=O)N2CCC[C@@H](Nc3nc(C)c(SCc4ncc(C(C)(C)C)o4)s3)C2)cc1`, the IC50 is > 10 µM.

Take `C=CC(=O)Nc1ccc(C(=O)N2CCC[C@@H](Nc3ncc(SCc4ccncc4)s3)C2)cc1`: the IC50 was > 10 µM.

`C=CC(=O)Nc1ccc(C(=O)N2CCC[C@@H](Nc3ncc(SCc4ncc(C(C)(C)C)o4)s3)[C@H]2C)cc1` had an IC50 of 7.79 µM.

With `C=CC(=O)Nc1ccc(C(=O)N2CCC[C@@H](Nc3ncc(SCc4ncc(C(C)(C)C)o4)s3)C2)cc1F`, the IC50 was 5.54 µM.

With `C=CC(=O)Nc1ccc(C(=O)N2C[C@H](Nc3ncc(SCc4ncc(C(C)(C)C)o4)s3)CC[C@@H]2C)cc1`, the IC50 turned out to be 0.609 µM.

As to `C=CC(=O)Nc1ccc(C(=O)N2CCC[C@@H](Nc3ncc(SCc4ncc(C(C)(C)C)o4)s3)C2)nc1`, the midpoint of inhibition, the IC50, lay at 3.89 µM.

On to `C=CC(=O)Nc1ccc(C(=O)N2CCC[C@@H](Nc3ncc(Cl)c(SCc4ncc(C(C)(C)C)o4)n3)C2)cc1`, for which the midpoint of inhibition, the IC50, lay at 5.12 µM.

On to `C=CC(=O)Nc1ccc(C(=O)N2CCC[C@@H](Nc3ncc([S+]([O-])Cc4ncc(C(C)(C)C)o4)s3)C2)cc1` (stereo not given in full), for which the IC50 was > 10 µM.

The record behind these values is ChEMBL document CHEMBL4610118 (J Med Chem, 2020).
